Key:
[1] = molecular target: T1, Human 5-HT4 receptor (5-HT4b) (Homo sapiens, UniProt Q13639); assay: Test Example 3: Human 5-HT4 receptor binding assay, membranes of CHO-K1 cells stably expressing 5-HT4b receptors (Table 99); conditions: mean value of each group
T1 construct: expressed in transfected cells; membrane preparation
Procedure, shortened: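 Membranes from CHO-K1 cells stably expressing 5-HT4b incubated with 0.1 nM [3H]-GR113808 in 50 mM Hepes pH 7.4, 37 °C, 30 min; nonspecific binding with 30 μM serotonin. Bound label collected by filtration and scintillation counting; IC50 from inhibition of specific binding.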

human 5-HT4b receptor = molecular target: T2, human 5-HT4b receptor (Homo sapiens, UniProt Q13639); assay: Test Example 4: Serotonin 4 (5-HT4) receptor agonist activity assay, cAMP HTRF in CHO cells (Table 100); type: cell-based; conditions: mean value; for Emax: CHO, 0.25 h, intrinsic activity, maximal activity of 5-HT defined as 100%, read-out: IA (%); for EC50: concentration showing 50% of IA
T2 construct: expressed in transfected cells; host or cells: CHO cells (G418 selection)
T2 sequence (Q13639 whole entry): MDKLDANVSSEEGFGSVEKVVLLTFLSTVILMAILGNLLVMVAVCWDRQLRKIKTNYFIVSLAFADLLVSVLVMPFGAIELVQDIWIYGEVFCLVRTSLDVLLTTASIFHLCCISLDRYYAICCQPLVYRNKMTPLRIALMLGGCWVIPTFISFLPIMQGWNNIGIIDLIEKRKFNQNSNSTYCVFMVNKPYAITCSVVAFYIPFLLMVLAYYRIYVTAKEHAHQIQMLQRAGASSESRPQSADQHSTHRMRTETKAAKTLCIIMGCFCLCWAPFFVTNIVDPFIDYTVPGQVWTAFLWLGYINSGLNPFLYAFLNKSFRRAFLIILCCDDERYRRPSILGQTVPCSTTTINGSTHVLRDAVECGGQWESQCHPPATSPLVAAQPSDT
Procedure, shortened: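 CHO cells expressing human 5-HT4b receptor, serum-reduced for 1–2 h, were suspended in Hanks/HEPES pH 7.4 and exposed to compound for 15 min at 31° C. cAMP detected by HTRF (cryptate/d2, 1 h RT, 620/665 nm). EC50 and intrinsic activity relative to maximal 5-HT response (10^−11 to 10^−7 M) set at 100%.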

T1 sequence (Q13639 whole entry): as above

| SMILES | IC50 [1] [nM] | Emax (human 5-HT4b receptor) [%] | EC50 (human 5-HT4b receptor) [nM] |
| --- | --- | --- | --- |
| CC(C)c1nn(-c2noc(C[C@@H]3CCN(C[C@@H]4CCCN4S(C)(=O)=O)C3)n2)c2c(F)cccc12 [Example 510, 7-fluoro-1-(5-{[(3S)-1-{[(2S)-1-(methylsulfonyl)pyrrolidin-2-yl]methyl}pyrrolidin-3-yl]methyl}-1,2,4-oxadiazol-3-yl)-3-(propan-2-yl)-1H-indazole] | < 20 | 46 | 2.7 |
| CC(=O)N1CCC[C@@H]1CN1CC[C@@H](Cc2nc(-n3nc(C(C)C)c4cccc(F)c43)no2)C1 [Example 511, 1-[(2R)-2-{[(3S)-3-({3-[7-fluoro-3-(propan-2-yl)-1H-indazol-1-yl]-1,2,4-oxadiazol-5-yl}methyl)pyrrolidin-1-yl]methyl}pyrrolidin-1-yl]ethanone] | < 20 | 51 | 9.6 |
| CC(C)c1nn(-c2noc(C[C@@H]3CCN(C[C@H]4CCN(S(C)(=O)=O)C4)C3)n2)c2c(F)cccc12 [Example 518, 7-fluoro-1-(5-{[(3S)-1-{[(3R)-1-(methylsulfonyl)pyrrolidin-3-yl]methyl}pyrrolidin-3-yl]methyl}-1,2,4-oxadiazol-3-yl)-3-(propan-2-yl)-1H-indazole] | < 20 | 59 | 5.5 |
| CC(C)c1nn(-c2noc([C@H]3C[C@@H](NCC4CCCO4)C3)n2)c2c(F)cccc12 (relative stereo) [Example 596, cis-3-{3-[7-fluoro-3-(propan-2-yl)-1H-indazol-1-yl]-1,2,4-oxadiazol-5-yl}-N-(tetrahydrofuran-2-ylmethyl)cyclobutanamine] | < 20 | 82 | 4.1 |
| CC(=O)N1CCC(N[C@H]2C[C@@H](c3nc(-n4nc(C(C)C)c5cccc(F)c54)no3)C2)CC1 [Example 593, 1-{4-[(cis-3-{3-[7-fluoro-3-(propan-2-yl)-1H-indazol-1-yl]-1,2,4-oxadiazol-5-yl}cyclobutyl)amino]piperidin-1-yl}ethanone] | < 20 | 99 | 2.7 |
| COCCN(C1CCOCC1)[C@H]1C[C@@H](c2nc(-n3nc(C(C)C)c4cccc(F)c43)no2)C1 [Example 614, N-(cis-3-{3-[7-fluoro-3-(propan-2-yl)-1H-indazol-1-yl]-1,2,4-oxadiazol-5-yl}cyclobutyl)-N-(2-methoxyethyl)tetrahydro-2H-pyran-4-amine] | < 20 | 93 | 10.9 |
| CC(=O)N1CC[C@@H](CN2CC[C@H](Cc3nc(-n4nc(C(C)C)c5cccc(F)c54)no3)C2)C1 [Example 503, 1-[(3S)-3-{[(3R)-3-({3-[7-fluoro-3-(propan-2-yl)-1H-indazol-1-yl]-1,2,4-oxadiazol-5-yl}methyl)pyrrolidin-1-yl]methyl}pyrrolidin-1-yl]ethanone] | < 20 | 98 | 5 |
| CC(C)c1nn(-c2noc(C[C@H]3CCN(C[C@@H]4CCN(C(=O)CO)C4)C3)n2)c2c(F)cccc12 [Example 543, 1-[(3S)-3-{[(3R)-3-({3-[7-fluoro-3-(propan-2-yl)-1H-indazol-1-yl]-1,2,4-oxadiazol-5-yl}methyl)pyrrolidin-1-yl]methyl}pyrrolidin-1-yl]-2-hydroxyethanone] | < 20 | 92 | 3.7 |
| CCc1nn(-c2noc(C3CCN(C[C@@H]4CCCN4C(=O)CO)CC3)n2)c2c(F)cccc12 [Example 583, 1-[(2S)-2-({4-[3-(3-ethyl-7-fluoro-1H-indazol-1-yl)-1,2,4-oxadiazol-5-yl]piperidin-1-yl}methyl)pyrrolidin-1-yl]-2-hydroxyethanone] | < 20 | 84 | 5.9 |
| CC(C)c1nn(-c2noc([C@H]3CC[C@@H](NCC4CCN(S(C)(=O)=O)CC4)CC3)n2)c2c(F)cccc12 [Example 618, cis-4-{3-[7-fluoro-3-(propan-2-yl)-1H-indazol-1-yl]-1,2,4-oxadiazol-5-yl}-N-{[1-(methylsulfonyl)piperidin-4-yl]methyl}cyclohexanamine] | < 20 | 32 | 6.2 |
| CC(C)c1nn(-c2noc(C[C@H]3CCN(C[C@H]4CCN(S(C)(=O)=O)C4)C3)n2)c2c(F)cccc12 [Example 506, 7-fluoro-1-(5-{[(3R)-1-{[(3R)-1-(methylsulfonyl)pyrrolidin-3-yl]methyl}pyrrolidin-3-yl]methyl}-1,2,4-oxadiazol-3-yl)-3-(propan-2-yl)-1H-indazole] | < 20 | 46 | 2.8 |
| CC(C)c1nn(-c2noc(C[C@H]3CCN(C[C@@H]4CCN(S(C)(=O)=O)C4)C3)n2)c2c(F)cccc12 [Example 504, 7-fluoro-1-(5-{[(3R)-1-{[(3S)-1-(methylsulfonyl)pyrrolidin-3-yl]methyl}pyrrolidin-3-yl]methyl}-1,2,4-oxadiazol-3-yl)-3-(propan-2-yl)-1H-indazole] | < 20 | 47 | 3.9 |
| CC(=O)N1CC[C@H](CN2CC[C@@H](Cc3nc(-n4nc(C(C)C)c5cccc(F)c54)no3)C2)C1 [Example 517, 1-[(3R)-3-{[(3S)-3-({3-[7-fluoro-3-(propan-2-yl)-1H-indazol-1-yl]-1,2,4-oxadiazol-5-yl}methyl)pyrrolidin-1-yl]methyl}pyrrolidin-1-yl]ethanone] | < 20 | 72 | 6.1 |
| CC(C)c1nn(-c2noc(C[C@@H]3CCN(C4CCN(C(=O)CO)CC4)C3)n2)c2c(F)cccc12 [Example 545, 1-{4-[(3S)-3-({3-[7-fluoro-3-(propan-2-yl)-1H-indazol-1-yl]-1,2,4-oxadiazol-5-yl}methyl)pyrrolidin-1-yl]piperidin-1-yl}-2-hydroxyethanone] | < 20 | 60 | 5.5 |
| CC(=O)N1CC(CN2CC[C@H](Cc3nc(-n4nc(C(C)C)c5cccc(F)c54)no3)C2)C1 [Example 501, 1-(3-{[(3R)-3-({3-[7-fluoro-3-(propan-2-yl)-1H-indazol-1-yl]-1,2,4-oxadiazol-5-yl}methyl)pyrrolidin-1-yl]methyl}azetidin-1-yl)ethanone] | < 20 | 84 | 3.5 |
| CC(C)c1nn(-c2noc(C[C@@H]3CCN(C[C@H]4CCCN4C(=O)CO)C3)n2)c2c(F)cccc12 [Example 547, 1-[(2R)-2-{[(3S)-3-({3-[7-fluoro-3-(propan-2-yl)-1H-indazol-1-yl]-1,2,4-oxadiazol-5-yl}methyl)pyrrolidin-1-yl]methyl}pyrrolidin-1-yl]-2-hydroxyethanone] | < 20 | 54 | 14.1 |
| COCCN(CC1CCCO1)C1CC(c2nc(-n3nc(C(C)C)c4cccc(F)c43)no2)C1 (stereo not drawn) [Example 612, 3-{3-[7-fluoro-3-(propan-2-yl)-1H-indazol-1-yl]-1,2,4-oxadiazol-5-yl}-N-(2-methoxyethyl)-N-(tetrahydrofuran-2-ylmethyl)cyclobutanamine] | 20.5 | 82 | 14.6 |
| CC(C)c1nn(-c2noc(C[C@H]3CCN(CC4CN(S(C)(=O)=O)C4)C3)n2)c2c(F)cccc12 [Example 502, 7-fluoro-1-(5-{[(3R)-1-{[1-(methylsulfonyl)azetidin-3-yl]methyl}pyrrolidin-3-yl]methyl}-1,2,4-oxadiazol-3-yl)-3-(propan-2-yl)-1H-indazole] | < 20 | 70 | 3.5 |
| CCc1nn(-c2noc(C3CCN(C4(C)CCN(C(=O)COC)CC4)CC3)n2)c2c(F)cccc12 [Example 494, 1-{4-[3-(3-ethyl-7-fluoro-1H-indazol-1-yl)-1,2,4-oxadiazol-5-yl]-4′-methyl-1,4′-bipiperidin-1′-yl}-2-methoxyethanone] | < 20 | 72 | 2.1 |
| CC(C)c1nn(-c2noc(C[C@H]3CCN(CC4CN(C(=O)CO)C4)C3)n2)c2c(F)cccc12 [Example 542, 1-(3-{[(3R)-3-({3-[7-fluoro-3-(propan-2-yl)-1H-indazol-1-yl]-1,2,4-oxadiazol-5-yl}methyl)pyrrolidin-1-yl]methyl}azetidin-1-yl)-2-hydroxyethanone] | < 20 | 90 | 3.3 |
| CC(=O)N1CCC(C)(N2CCC(c3nc(-n4nc(C(C)C)c5cccc(F)c54)no3)CC2)CC1 [Example 487, 1-(4-{3-[7-fluoro-3-(propan-2-yl)-1H-indazol-1-yl]-1,2,4-oxadiazol-5-yl}-4′-methyl-1,4′-bipiperidin-1′-yl)ethanone] | < 20 | 70 | 3.2 |
| CC(=O)N1CCC[C@@H]1CN1CC[C@H](Cc2nc(-n3nc(C(C)C)c4cccc(F)c43)no2)C1 [Example 499, 1-[(2R)-2-{[(3R)-3-({3-[7-fluoro-3-(propan-2-yl)-1H-indazol-1-yl]-1,2,4-oxadiazol-5-yl}methyl)pyrrolidin-1-yl]methyl}pyrrolidin-1-yl]ethanone] | 48.6 | 82 | 7.8 |
| CC(C)c1nn(-c2noc(C3CCN(C4(C)CCN(S(C)(=O)=O)CC4)CC3)n2)c2c(F)cccc12 [Example 488, 4-{3-[7-fluoro-3-(propan-2-yl)-1H-indazol-1-yl]-1,2,4-oxadiazol-5-yl}-4′-methyl-1′-(methylsulfonyl)-1,4′-bipiperidine] | < 20 | 106 | 2.9 |

Reference: patent publication US20140057895A1, “INDAZOLE- AND PYRROLOPYRIDINE-DERIVATIVE AND PHARMACEUTICAL USE THEREOF” (priority 2011, published 2014)
